# Patent EP0502987B1, “ACYLATED BRADYKININ ANTAGONISTS AND USES THEREFOR” (TRUSTEES OF BOSTON UNIVERSITY, priority 1989, dated 1994)
# Square brackets hold non-standard residues; d marks the D form. Peptide text beside a SMILES is read from it. Hyp = O=C(O)[C@@H]1C[C@@H](O)CN1; 2Thi = N[C@@H](Cc1cccs1)C(=O)O
# Test system: vasodepressor response of exogenous bradykinin
# Assay: Inhibition of the vasodepressor response to exogenous bradykinin in awake rats
# Assay type: in vivo, Wistar rats
# Protocol: An adamantane acetic acid-modified bradykinin analog was synthesized by the solid-phase method described in Example 1. The analog designed by Stewart et al. was also synthesized and used as a control. The control (or model) and test analogs had the following structure: Model: D-Arg-Arg-Pro-Hyp-Gly-Thi-Ser-D-Phe-Thi-Arg Test: [formula] The antagonistic potency of the analogs was assessed by their ability to inhibit the vasodepressor response of exogenous bradykinin in awake rats.
# Intact male Wistar rats (Charles River Breeding Laboratories, Wilmington, MA, U.S.A.) weighing 225-250 g were used and maintained on a regular Purina Rat Chow diet and tap water in a room at constant temperature (23 ± 1°C) with 12 hour dark/12 hour light cycles. One day before the experiment, the right carotid and the iliac artery in the rats were catheterized with polyethylene tubing (PE 50) under light ether anesthesia. A "Y" type connection was connected to the carotid artery catheter with two ends: one for injecting bradykinin and the other for infusing the bradykinin analogs. All of the catheters were externalized subcutaneously at the back of the neck. On the day of the experiment, the rats were maintained conscious and unrestrained in plastic cages. Arterial pressure (AP), mean arterial pressure (MAP) and heart rate (HR) were monitored through a Gould-Statham P23 ID pressure transducer (Gould, Cleveland, OH) connected to the iliac catheter and recorded on a Gould 2200S paper chart recorder. A half-hour period was allowed before the actual initiation of the experiment. […]
# The effectiveness of each analog was tested by regression analysis of the data obtained in each rat, using a logarithmic transformation of the linear portion of each dose-response curve to calculate the ED₂₂ and ED₉₀ values. The comparison between the two analogs at the same dose was determined using the Students Nonpaired T Test. […]
# The pA₂ is the most commonly used parameter to quantitatively express the potency of an antagonist. […]
compound,measurement,setting,value
"N=C(N)NCCC[C@@H](N)C(=O)N[C@@H](CCCNC(=N)N)C(=O)N1CCC[C@H]1C(=O)N1C[C@H](O)C[C@H]1C(=O)NCC(=O)N[C@@H](Cc1cccs1)C(=O)N[C@@H](CO)C(=O)N[C@H](Cc1ccccc1)C(=O)N[C@@H](Cc1cccs1)C(=O)N[C@@H](CCCNC(=N)N)C(=O)O [Model Analog, D-Arg-Arg-Pro-Hyp-Gly-Thi-Ser-D-Phe-Thi-Arg] (H-[dR]RP[Hyp]G[2Thi]S[dF][2Thi]R-OH)",ED₂₂,"dose of analog infused (intracarotid) which inhibits 22% of the vasodepressor response to 250 ng of BK, conscious rats pretreated with enalapril 1 mg/kg, 7 rats, mean ± SE",1.49 ± 0.29 µg/min
same,ED₉₀,"dose of analog infused (intracarotid) which inhibits 90% of the vasodepressor response to 250 ng of BK, conscious rats pretreated with enalapril 1 mg/kg, 7 rats, mean ± SE",142.50 ± 26.44 µg/min
same,pA₂ (anti-vasodepressor potency),negative logarithm of ED value (ED₂₂) divided by estimated volume of distribution (67ml/kg),7.17±0.11
